{"source": "patent US20240238281A1", "about": "“PIPERAZINE DERIVATIVES AND APPLICATION THEREOF” (priority 2021, published 2024)", "type_in_all_cases": "cell-based", "key": {"MC5R": {"biological_target": "T1, MC5R (Homo sapiens, UniProt P33032)", "T1 construct": "expressed in transfected cells", "T1 sequence (P33032 whole entry)": "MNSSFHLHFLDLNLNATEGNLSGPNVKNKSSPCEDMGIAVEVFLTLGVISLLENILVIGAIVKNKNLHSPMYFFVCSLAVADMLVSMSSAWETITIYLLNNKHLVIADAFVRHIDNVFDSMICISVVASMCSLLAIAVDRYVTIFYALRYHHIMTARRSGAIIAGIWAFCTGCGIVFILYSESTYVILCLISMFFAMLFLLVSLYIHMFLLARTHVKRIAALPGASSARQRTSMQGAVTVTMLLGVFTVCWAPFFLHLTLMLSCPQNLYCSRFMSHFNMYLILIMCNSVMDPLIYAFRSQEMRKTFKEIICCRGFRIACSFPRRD", "assay": "In vitro activity of MCR receptors, intracellular cAMP signal (HEK293T/MCR cell line), MC5R", "procedure": "(§1) Test purpose: to evaluate the agonistic effect of the compound on MCRs by detecting intracellular cAMP signal changes.\n(§2) Cells were resuspended with 1×PBS+500 μM IBMX. 10 μL of the cell suspension was added into a 384-well plate to be tested, and the cell concentration was adjusted to 1×10^4 cells per well for later use. A pre-prepared solution of the compound to be tested was added, and dimethyl sulfoxide of the same volume was added to blank control wells. The test plate was centrifuged at 300 rpm for 1 minute, incubated at 37° C. for 30 minutes, and added with 5 μL of cAMP-d2 and 5 μL of a CAMP-cry antibody detection reagent. The test plate was centrifuged at 300 rpm for 1 minute, and incubated at room temperature for 60 minutes. The test plate was placed in the Envision multifunctional microplate reader for reading, with a detection wavelength of 665/615 nm."}, "MC1R": {"biological_target": "T2, MC1R (Homo sapiens, UniProt Q01726)", "T2 construct": "expressed in transfected cells", "T2 sequence (Q01726 whole entry)": "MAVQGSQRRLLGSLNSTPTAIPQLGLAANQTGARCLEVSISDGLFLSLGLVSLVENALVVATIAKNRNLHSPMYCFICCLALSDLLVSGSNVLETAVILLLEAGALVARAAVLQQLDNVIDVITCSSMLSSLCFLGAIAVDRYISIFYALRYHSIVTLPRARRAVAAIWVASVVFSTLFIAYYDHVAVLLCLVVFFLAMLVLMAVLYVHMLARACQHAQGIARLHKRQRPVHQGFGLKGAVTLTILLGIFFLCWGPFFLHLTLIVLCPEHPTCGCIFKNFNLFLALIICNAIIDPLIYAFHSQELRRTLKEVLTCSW", "assay": "In vitro activity of MCR receptors, intracellular cAMP signal (HEK293T/MCR cell line), MC1R", "procedure": "as §1\nas §2, with “minutes.” for “minutes. The test plate was placed in the Envision multifunctional microplate reader for reading, with a detection wavelength of 665/615 nm.”"}, "MC4R": {"biological_target": "T3, MC4R (Homo sapiens, UniProt P32245)", "T3 construct": "expressed in transfected cells", "T3 sequence (P32245 whole entry)": "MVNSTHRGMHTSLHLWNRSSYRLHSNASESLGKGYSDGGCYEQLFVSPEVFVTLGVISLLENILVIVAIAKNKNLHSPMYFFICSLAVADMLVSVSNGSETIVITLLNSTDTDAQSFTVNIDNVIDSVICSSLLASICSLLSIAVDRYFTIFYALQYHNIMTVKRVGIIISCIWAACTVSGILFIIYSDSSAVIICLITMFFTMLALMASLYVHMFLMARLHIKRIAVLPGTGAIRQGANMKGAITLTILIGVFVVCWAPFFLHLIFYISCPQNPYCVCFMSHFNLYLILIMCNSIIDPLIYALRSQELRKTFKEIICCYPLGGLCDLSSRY", "assay": "In vitro activity of MCR receptors, intracellular cAMP signal (HEK293T/MCR cell line), MC4R", "procedure": "as §1, §2"}, "MC3R": {"biological_target": "T4, MC3R (Homo sapiens, UniProt P41968)", "T4 construct": "expressed in transfected cells", "T4 sequence (P41968 whole entry)": "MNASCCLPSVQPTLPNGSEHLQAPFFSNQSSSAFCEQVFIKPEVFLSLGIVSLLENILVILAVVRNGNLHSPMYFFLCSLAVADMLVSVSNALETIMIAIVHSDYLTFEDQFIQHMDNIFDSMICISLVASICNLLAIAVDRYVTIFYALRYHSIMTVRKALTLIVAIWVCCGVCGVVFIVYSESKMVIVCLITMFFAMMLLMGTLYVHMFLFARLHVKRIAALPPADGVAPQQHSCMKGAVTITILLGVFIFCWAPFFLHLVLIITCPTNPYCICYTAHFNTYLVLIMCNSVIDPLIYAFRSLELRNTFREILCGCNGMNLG", "assay": "In vitro activity of MCR receptors, intracellular cAMP signal (HEK293T/MCR cell line), MC3R", "procedure": "as §1\nas §2, with “minutes.” for “minutes. The test plate was placed in the Envision multifunctional microplate reader for reading, with a detection wavelength of 665/615 nm.”"}, "[1]": {"details": "cAMP, HEK293T/MCR cell line, read-out: MC3R EC50"}, "[2]": {"details": "cAMP, HEK293T/MCR cell line, read-out: MC5R EC50"}, "[3]": {"details": "cAMP, HEK293T/MCR cell line, read-out: MC1R EC50"}, "[4]": {"details": "cAMP, HEK293T/MCR cell line, read-out: MC4R EC50"}}, "note": "Where a name gives a salt, the structure may show the parent alone. Read-outs that look alike come from different tables or passages of the source."}
{"smiles": "C[C@@H]1CN(C(=O)C2CN(C(C)(C)C)CC2c2ccc(F)cc2F)C[C@H](C)N1c1ccc(F)cc1", "note": "(single isomer, unassigned) [Compound 3]", "values": [{"measurement": "EC50", "setting": "MC5R", "value": "> 10000", "unit": "nM"}, {"measurement": "EC50", "setting": "MC1R", "value": 300, "unit": "nM"}, {"measurement": "EC50", "setting": "MC4R", "value": 30, "unit": "nM"}, {"measurement": "EC50", "setting": "MC3R", "value": 2400, "unit": "nM"}]}
{"smiles": "C[C@@H]1CN(C(=O)C2CN(C(C)(C)C)CC2c2ccc(F)cc2F)C[C@H](C)N1c1ccc(C(F)(F)F)cc1", "note": "(single isomer, unassigned) [Compound 5]", "values": [{"measurement": "EC50", "setting": "MC5R", "value": "> 10000", "unit": "nM"}, {"measurement": "EC50", "setting": "MC1R", "value": 882, "unit": "nM"}, {"measurement": "EC50", "setting": "MC4R", "value": 35, "unit": "nM"}, {"measurement": "EC50", "setting": "MC3R; [1]", "value": 3500, "unit": "nM"}]}
{"smiles": "C[C@@H]1CN(C(=O)C2CN(C(C)(C)C)CC2c2ccc(Cl)cc2)C[C@H](C)N1c1ccc(F)cc1", "note": "(single isomer, unassigned) [Compound 9]", "values": [{"measurement": "EC50", "setting": "MC5R", "value": 402, "unit": "nM"}, {"measurement": "EC50", "setting": "MC1R", "value": 45, "unit": "nM"}, {"measurement": "EC50", "setting": "MC4R", "value": 16, "unit": "nM"}, {"measurement": "EC50", "setting": "MC3R; [1]", "value": 1760, "unit": "nM"}]}
{"smiles": "C[C@@H]1CN(C(=O)C2CN(c3cccnn3)CC2c2ccc(F)cc2F)C[C@H](C)N1c1ccc(F)cc1", "note": "(single isomer, unassigned) [Compound 11]", "values": [{"measurement": "EC50", "setting": "MC5R", "value": 2130, "unit": "nM"}, {"measurement": "EC50", "setting": "MC1R", "value": 82, "unit": "nM"}, {"measurement": "EC50", "setting": "MC4R", "value": 0.4, "unit": "nM"}, {"measurement": "EC50", "setting": "MC3R; [1]", "value": 26, "unit": "nM"}]}
{"smiles": "C[C@@H]1CN(C(=O)C2CN(c3ccc(C#N)cn3)CC2c2ccc(F)cc2F)C[C@H](C)N1c1ccc(F)cc1", "note": "(single isomer, unassigned) [Compound 12]", "values": [{"measurement": "EC50", "setting": "MC5R", "value": 740, "unit": "nM"}, {"measurement": "EC50", "setting": "MC1R", "value": 234, "unit": "nM"}, {"measurement": "EC50", "setting": "MC4R", "value": 0.2, "unit": "nM"}, {"measurement": "EC50", "setting": "MC3R; [1]", "value": 5, "unit": "nM"}]}
{"smiles": "C[C@@H]1CN(C(=O)C2CN(c3ccccc3)CC2c2ccc(F)cc2F)C[C@H](C)N1c1ccc(F)cc1", "note": "(single isomer, unassigned) [Compound 13]", "values": [{"measurement": "EC50", "setting": "MC5R", "value": "> 10000", "unit": "nM"}, {"measurement": "EC50", "setting": "MC1R", "value": "> 10000", "unit": "nM"}, {"measurement": "EC50", "setting": "MC4R", "value": 50, "unit": "nM"}, {"measurement": "EC50", "setting": "MC3R; [1]", "value": 3300, "unit": "nM"}]}
{"smiles": "C[C@@H]1CN(C(=O)C2CN(C3CCOCC3)CC2c2ccc(Cl)cc2)C[C@H](C)N1c1ccc(F)cc1", "note": "(single isomer, unassigned) [Compound 16]", "values": [{"measurement": "EC50", "setting": "MC5R", "value": 1170, "unit": "nM"}, {"measurement": "EC50", "setting": "MC1R", "value": 167, "unit": "nM"}, {"measurement": "EC50", "setting": "MC4R", "value": 6, "unit": "nM"}, {"measurement": "EC50", "setting": "MC3R; [1]", "value": 254, "unit": "nM"}]}
{"smiles": "C[C@@H]1CN(C(=O)C2CN(C3CCOC3)CC2c2ccc(F)cc2F)C[C@H](C)N1c1ccc(F)cc1", "note": "(single isomer, unassigned) [Compound 20a]", "values": [{"measurement": "EC50", "setting": "MC5R; [2]", "value": "> 10000", "unit": "nM"}, {"measurement": "EC50", "setting": "MC1R; [3]", "value": 2010, "unit": "nM"}, {"measurement": "EC50", "setting": "MC4R; [4]", "value": 26, "unit": "nM"}, {"measurement": "EC50", "setting": "MC3R", "value": 3130, "unit": "nM"}]}
{"smiles": "C[C@@H]1CN(C(=O)C2CN(C3CCOC(C)(C)C3)CC2c2ccc(F)cc2F)C[C@H](C)N1c1ccc(F)cc1", "note": "(single isomer, unassigned) [Compound 21b]", "values": [{"measurement": "EC50", "setting": "MC5R; [2]", "value": "> 10000", "unit": "nM"}, {"measurement": "EC50", "setting": "MC1R; [3]", "value": 492, "unit": "nM"}, {"measurement": "EC50", "setting": "MC4R; [4]", "value": 5.3, "unit": "nM"}, {"measurement": "EC50", "setting": "MC3R", "value": 268, "unit": "nM"}]}
{"smiles": "CC1CC(N2CC(C(=O)N3C[C@@H](C)N(c4ccc(F)cc4)[C@@H](C)C3)C(c3ccc(F)cc3F)C2)CCO1", "note": "(single isomer, unassigned) [Compound 22a]", "values": [{"measurement": "EC50", "setting": "MC5R; [2]", "value": "> 10000", "unit": "nM"}, {"measurement": "EC50", "setting": "MC1R; [3]", "value": 790, "unit": "nM"}, {"measurement": "EC50", "setting": "MC4R; [4]", "value": 0.03, "unit": "nM"}, {"measurement": "EC50", "setting": "MC3R", "value": 265, "unit": "nM"}]}
{"smiles": "C[C@@H]1CN(C(=O)[C@@H]2CN(C(C)(C)C)C[C@H]2c2ccc(F)cc2F)C[C@H](C)N1c1ccccn1", "note": "[Compound 1]", "values": [{"measurement": "EC50", "setting": "MC5R", "value": "> 10000", "unit": "nM"}, {"measurement": "EC50", "setting": "MC1R", "value": 2330, "unit": "nM"}, {"measurement": "EC50", "setting": "MC4R", "value": 148, "unit": "nM"}, {"measurement": "EC50", "setting": "MC3R; [1]", "value": "> 10000", "unit": "nM"}]}
{"smiles": "C[C@@H]1CN(C(=O)[C@@H]2CN(C3CCOCC3)C[C@H]2c2ccc(F)cc2F)C[C@H](C)N1c1ccc(F)c(F)c1", "note": "[Compound 14]", "values": [{"measurement": "EC50", "setting": "MC5R; [2]", "value": 919, "unit": "nM"}, {"measurement": "EC50", "setting": "MC1R; [3]", "value": 575, "unit": "nM"}, {"measurement": "EC50", "setting": "MC4R; [4]", "value": 10, "unit": "nM"}, {"measurement": "EC50", "setting": "MC3R", "value": 672, "unit": "nM"}]}
{"smiles": "C[C@@H]1CN(C(=O)[C@@H]2CN(C3CCOCC3)C[C@H]2c2ccc(F)cc2F)C[C@H](C)N1c1ccc(Cl)cc1", "note": "[Compound 15]", "values": [{"measurement": "EC50", "setting": "MC5R; [2]", "value": "> 10000", "unit": "nM"}, {"measurement": "EC50", "setting": "MC1R", "value": 580, "unit": "nM"}, {"measurement": "EC50", "setting": "MC4R; [4]", "value": 3, "unit": "nM"}, {"measurement": "EC50", "setting": "MC3R", "value": 574, "unit": "nM"}]}
{"smiles": "C[C@@H]1CN(C(=O)[C@@H]2CN(C3CCC3)C[C@H]2c2ccc(F)cc2F)C[C@H](C)N1c1ccc(F)cc1", "note": "[Compound 17]", "values": [{"measurement": "EC50", "setting": "MC5R; [2]", "value": 8150, "unit": "nM"}, {"measurement": "EC50", "setting": "MC1R; [3]", "value": 55, "unit": "nM"}, {"measurement": "EC50", "setting": "MC4R; [4]", "value": 6.7, "unit": "nM"}, {"measurement": "EC50", "setting": "MC3R", "value": 1100, "unit": "nM"}]}
{"smiles": "C[C@@H]1CN(C(=O)[C@@H]2CN(C3CCCCC3)C[C@H]2c2ccc(F)cc2F)C[C@H](C)N1c1ccc(F)cc1", "note": "[Compound 18]", "values": [{"measurement": "EC50", "setting": "MC5R; [2]", "value": 1370, "unit": "nM"}, {"measurement": "EC50", "setting": "MC1R; [3]", "value": 29, "unit": "nM"}, {"measurement": "EC50", "setting": "MC4R; [4]", "value": 4, "unit": "nM"}, {"measurement": "EC50", "setting": "MC3R", "value": 201, "unit": "nM"}]}
{"smiles": "C[C@@H]1CN(C(=O)C2CN([C@H]3CCO[C@@H](C)C3)C[C@H]2c2ccc(F)cc2F)C[C@H](C)N1c1ccc(F)cc1", "note": "(stereo partly drawn) [Compound 22d]", "values": [{"measurement": "EC50", "setting": "MC5R; [2]", "value": "> 10000", "unit": "nM"}, {"measurement": "EC50", "setting": "MC1R; [3]", "value": 106, "unit": "nM"}, {"measurement": "EC50", "setting": "MC4R; [4]", "value": 1.9, "unit": "nM"}, {"measurement": "EC50", "setting": "MC3R", "value": 696, "unit": "nM"}]}
{"smiles": "CCC(C)(C)N1CC(C(=O)N2C[C@@H](C)N(c3ccc(F)cc3)[C@@H](C)C2)[C@H](c2ccc(F)cc2F)C1", "note": "(stereo partly drawn) [Compound 23]", "values": [{"measurement": "EC50", "setting": "MC5R; [2]", "value": 1950, "unit": "nM"}, {"measurement": "EC50", "setting": "MC1R; [3]", "value": 58, "unit": "nM"}, {"measurement": "EC50", "setting": "MC4R; [4]", "value": 4, "unit": "nM"}, {"measurement": "EC50", "setting": "MC3R", "value": 316, "unit": "nM"}]}
{"smiles": "C[C@@H]1CN(C(=O)[C@@H]2CN(C(C)(C)C)C[C@H]2c2ccc(F)cc2F)C[C@H](C)N1c1ccccc1", "note": "[Hydrochloride salt of compound 6]", "values": [{"measurement": "EC50", "setting": "MC5R; [2]", "value": 1150, "unit": "nM"}, {"measurement": "EC50", "setting": "MC1R; [3]", "value": 80, "unit": "nM"}, {"measurement": "EC50", "setting": "MC4R; [4]", "value": 24, "unit": "nM"}, {"measurement": "EC50", "setting": "MC3R", "value": 2030, "unit": "nM"}]}
